Values joined by “and” are separate entries in the source; they are usually repeats but may differ in a detail not shown here. Equal entries are not always repeated.
How the values were obtained:
cellular systems = conditions: cited from earlier work
pregnant rats = experiment: Blood pressure (tail cuff) in pregnant rats made hypertensive with MBG, then treated with RBG; type: in vivo, rat
Experimental: In order to confirm the effectiveness of RBG, experiments were performed. In the experiment, a group of four pregnant rats was provided with a blood pressure cuff on their tails in order to determine the base line blood pressure as shown in the table. In order to create hypertension, MBG was administered to the rats.
A dosage of approximately 7 mg per kg of rat weight with the rats weighing in the range of about 200-250 g was employed daily in order to determine the effectiveness of resibufagenin in the treatment of preeclampsia. The dosage was administered intraperitonially and the rats monitored after about three to four days of treatment. The MBG and RBG were administered in a suitable vehicle such as dimethylsulfoxide (DMSO).

[1] = system: vessels from preeclamptic rats; experiment: Perfusion of dissected vessels from preeclamptic rats with marinobufagenin; design: species or system rat; conditions: vessels from preeclamptic rats perfused with marinobufagenin; average
Description: (§1) It is elevated substantially more in preeclamptic rats.

[2] = system: vessels from normal pregnant animals or rats; experiment: Perfusion of dissected vessels from normal pregnant rats with marinobufagenin; design: species or system rat; conditions: vessels from normal pregnant rats perfused with marinobufagenin
Description: as §1

Structure (SMILES) | biological effect in cellular systems (cellular systems) | change in blood pressure after treatment with RBG (pregnant rats; all four pregnant rats, approximately 7 mg per kg daily intraperitoneally, about three to four days) | BP after RBG (pregnant rats; individual pregnant rats made hypertensive with MBG, RBG approximately 7 mg per kg daily intraperitoneally in DMSO, after about three to four days of treatment) | constriction of vessels as compared with control [1] | constriction of vessels [2] | BP after MBG (pregnant rats; individual pregnant rats, tail blood pressure cuff, MBG administered to create hypertension)
C[C@]12CC[C@H](O)C[C@H]1CC[C@@H]1[C@@H]2CC[C@]2(C)[C@@H](c3ccc(=O)oc3)C[C@H]3O[C@]132 [RBG, Resibufagenin] | no biological effect | substantial reduction in blood pressure | 95 mmHg and 120 mmHg and 110 mmHg and 105 mmHg | – | – | –
C[C@]12CC[C@H](O)C[C@@]1(O)CC[C@@H]1[C@@H]2CC[C@]2(C)[C@@H](c3ccc(=O)oc3)C[C@H]3O[C@]132 [MBG, marinobufagenin] | – | – | – | about 36% | do not constrict | 125 mmHg and 130 mmHg and 115 mmHg and 135 mmHg
